The supplement of paper PMC5908809

Key:
Assay in all cases: relative IC50 (inflection point of fitted viability curve, relative to fitted max inhibition); higher = less sensitive
Conditions in all cases: 72 h
NK-92 (IL-2 2.5 ng/mL) = test system: NK-92 (IL-2 2.5 ng/mL)
Description: (§1)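 Drug sensitivity and resistance testing: 5 concentrations over a 10,000-fold range, 72 h at 37 °C, viability by CellTiter-Glo normalised to DMSO and benzethonium chloride controls. IC50 is the inflection point of a logistic fit (min fixed at 0, max fitted), so it is relative to the fitted maximal inhibition. Kept only where fitted max inhibition is at least 50%.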

YT (IL-2 2.5 ng/mL) = test system: YT (IL-2 2.5 ng/mL)
Description: as §1

SNK-6 (IL-2 2.5 ng/mL) = test system: SNK-6 (IL-2 2.5 ng/mL)
Description: as §1

NK-YS (IL-2 2.5 ng/mL) = test system: NK-YS (IL-2 2.5 ng/mL)
Description: as §1

KAI3 (IL-2 2.5 ng/mL) = test system: KAI3 (IL-2 2.5 ng/mL)
Description: as §1

KHYG-1 (IL-2 2.5 ng/mL) = test system: KHYG-1 (IL-2 2.5 ng/mL)
Description: as §1

IMC-1 (IL-2 20 ng/mL) = test system: IMC-1 (IL-2 20 ng/mL)
Description: as §1

DERL-7 (IL-2 2.5 ng/mL) = test system: DERL-7 (IL-2 2.5 ng/mL)
Description: as §1

NKL (IL-2 2.5 ng/mL) = test system: NKL (IL-2 2.5 ng/mL)
Description: as §1

[1] = test system: normal primary NK cells, pool 1 (3 donors), resting (IL-2 0 ng/mL)
Description: as §1

Row | Compound | relative IC50 (NK-92 (IL-2 2.5 ng/mL)) | relative IC50 (YT (IL-2 2.5 ng/mL)) | relative IC50 (SNK-6 (IL-2 2.5 ng/mL)) | relative IC50 (NK-YS (IL-2 2.5 ng/mL)) | relative IC50 (KAI3 (IL-2 2.5 ng/mL)) | relative IC50 (KHYG-1 (IL-2 2.5 ng/mL)) | relative IC50 (IMC-1 (IL-2 20 ng/mL)) | relative IC50 (DERL-7 (IL-2 2.5 ng/mL)) | relative IC50 (NKL (IL-2 2.5 ng/mL)) | relative IC50 [1]
1 | O=C(O)c1ccc(Nc2ncc3c(n2)-c2ccc(Cl)cc2C(c2c(F)cccc2F)=NC3)cc1 [MLN-8054] | 563 nM | 190 nM | 73.6 nM | 125 nM | 291 nM | 259 nM | 1540 nM | 763 nM | 107 nM | –
2 | CCc1nc(-c2cccc(C)c2)c(-c2ccnc(NC(=O)c3ccccc3)c2)s1 [TAK-715] | 2170 nM | – | 3250 nM | 1570 nM | – | – | – | – | – | –
3 | O=C(Nc1cccc(Cl)c1)Nc1ncc(CCNc2ncnc3ccsc23)s1 [SNS-314] | 61.3 nM | – | 10.5 nM | 37.9 nM | – | 12.4 nM | 201 nM | 28.1 nM | – | –
4 | CCN1CCN(c2ccc(Nc3cc(N(C)C(=O)Nc4c(Cl)c(OC)cc(OC)c4Cl)ncn3)cc2)CC1 [NVP-BGJ398] | – | – | > 1000 nM | – | – | – | – | – | – | –
5 | C=CC[C@@H]1/C=C(\C)C[C@H](C)C[C@H](OC)[C@H]2O[C@@](O)(C(=O)C(=O)N3CCCC[C@H]3C(=O)O[C@H](/C(C)=C/[C@@H]3CC[C@@H](O)[C@H](OC)C3)[C@H](C)[C@@H](O)CC1=O)[C@H](C)C[C@@H]2OC [Tacrolimus] | – | – | – | – | – | – | – | – | – | 1620 nM
6 | CCc1c2c(nc3ccc(OC(=O)N4CCC(N5CCCCC5)CC4)cc13)-c1cc3c(c(=O)n1C2)COC(=O)[C@]3(O)CC [Irinotecan] | 140 nM | 577 nM | 260 nM | 282 nM | 146 nM | 152 nM | 347 nM | 597 nM | 73 nM | –
